This note sets out measurements from patent US20220096437A1, “ANTIBACTERIAL COMPOUNDS” (The University of Birmingham, priority 2019, published 2022).

In brackets after ≈: the same amount, converted by molar mass. Where two headings read alike, the source gives them in different places.

In the experiment the test system is Mycobacterium tuberculosis H37Rv. Kind of experiment: Susceptibility testing against Mycobacterium tuberculosis H37Rv (broth microdilution, resazurin readout). Format: cell-based. The conditions noted are these: M. tuberculosis H37Rv, 7 days at 37° C., resazurin fluorescence; for MIC99: Gomperz fit, read-out: MIC99 (μM) M. tub H37Rv; for MIC50: read-out: MIC50 (μM) M. tub H37Rv.

[1] abbreviates: Mycobacterium tuberculosis, 168 h.

The MIC99 is an inhibitory concentration at the 99% level, which refers to growth in some studies and to a panel of isolates in others. For orientation: MIC50 means an inhibitory concentration at the 50% level, which refers to growth in some studies and to a panel of isolates in others. As to `FC(F)(F)Oc1ccc(C2CC(CNC3CC3)N2Cc2ccccc2OC(F)(F)F)cc1` (racemic) [Azet 18, rac-N-(((2,4-cis)-1-(2-(trifluoromethoxy)benzyl)-4-(4-(trifluoromethoxy)phenyl)azetidin-2-yl)methyl)cyclopropana-mine], under setting [1], the MIC99 is 13 µM (≈ 5.99 µg/mL) and the MIC50 was 11.9 µM (≈ 5.48 µg/mL). `FC(F)(F)c1ccccc1CN1C(CN2CCCC2)CC1c1ccccc1C(F)(F)F` (racemic) [Azet 49, rac-1-(((2,4-cis)-1-(2-(trifluoromethyl)benzyl)-4-(2-(trifluoromethyl)phenyl)a-zetidin-2-yl)methyl)pyrrolidine]: the MIC50 under setting [1] is 6.68 µM (≈ 2.96 µg/mL). As to `CN(C)CC1CC(c2cc(Br)cc(Br)c2)N1Cc1ccccc1Br` (racemic) [Azet 2, rac-1-((2,4-cis)-1-(2-bromobenzyl)-4-(3,5-dibromophenyl)azetidin-2-yl)-N,N-dimethylmethanamine], under setting [1], the MIC50 came to 5.6 µM (≈ 2.9 µg/mL). Turning to `COc1ccccc1CN1C(CN2CCCC2)CC1c1ccc(Cl)cc1` (racemic) [Azet 53, rac-1-(((2,4-cis)-4-(4-chlorophenyl)-1-(2-methoxybenzyl)azetidin-2-yl)methyl)pyrrolidine], under setting [1], the MIC50 came out at 10.3 µM (≈ 3.82 µg/mL). With `CC(C)NCC1CC(c2ccccc2)N1Cc1ccccc1OC(F)(F)F` (racemic) [Azet 30, rac-N-(((2,4-cis)-4-phenyl-1-(2-(trifluoromethoxy)benzyl)azetidin-2-yl)methyl)propan-2-amine], under setting [1], the MIC99 turned out to be 48.9 µM (≈ 18.5 µg/mL) and the MIC50 stood at 21.1 µM (≈ 7.99 µg/mL). For the compound `Clc1cc(Cl)cc(C2CC(CN3CCCC3)N2Cc2ccccc2Br)c1` (racemic) [Azet 32, rac-1-(((2,4-cis)-1-(2-bromobenzyl)-4-(3,5-dichlorophenyl)azetidin-2-yl)methyl)pyrrolidine], under setting [1], the MIC99 is 9.21 µM (≈ 4.18 µg/mL) and the MIC50 came out at 7.58 µM (≈ 3.44 µg/mL).

Consider `FC(F)(F)c1cc(C2CC(CN3CCCC3)N2Cc2ccccc2Br)cc(C(F)(F)F)c1` (racemic) [Azet 33, rac-1-(((2,4-cis)-4-(3,5-bis(trifluoromethyl)phenyl)-1-(2-bromobenzyl)azetidin-2-yl)methyl)pyrrolidine], for which, under setting [1], the MIC99 is 3.29 µM (≈ 1.72 µg/mL) and the MIC50 turned out to be 6.93 µM (≈ 3.61 µg/mL). Consider `COc1ccccc1CN1C(CN2CCCC2)CC1c1ccccc1Cl` (racemic) [Azet 55, rac-1-(((2,4-cis)-4-(2-chlorophenyl)-1-(2-methoxybenzyl)azetidin-2-yl)methyl)pyrrolidine], for which the MIC50 under setting [1] stood at 27.6 µM (≈ 10.2 µg/mL).

As to `CN(C)CC1CC(c2cc(C(F)(F)F)cc(C(F)(F)F)c2)N1Cc1ccccc1Br` (racemic) [Azet 4, rac-1-((2,4-cis)-4-(3,5-bis(trifluoromethyl)phenyl)-1-(2-bromobenzyl)azetidin-2-yl)-N,N-dimethylmethanamine], under setting [1], the MIC99 came to 7.3 µM (≈ 3.62 µg/mL) and the MIC50 amounted to 6.59 µM (≈ 3.26 µg/mL). In the case of `COCCNCC1CC(c2ccc(OC(F)(F)F)cc2)N1Cc1ccccc1OC(F)(F)F` (racemic) [Azet 20, rac-2-methoxy-N-(((2,4- cis)-1-(2-(trifluoromethoxy)benzyl)-4-(4-(trifluoromethoxy)phenyl)azetidin-2-yl)methyl)ethan-1-amine], under setting [1], the MIC99 worked out at 18 µM (≈ 8.61 µg/mL) and the MIC50 amounted to 11 µM (≈ 5.26 µg/mL). Consider `COc1ccc(C2CC(CN3CCCC3)N2Cc2ccccc2Br)cc1` (racemic) [Azet 42, rac-1-(((2,4-cis)-1-(2-bromobenzyl)-4-(4-methoxyphenyl)azetidin-2-yl)methyl)pyrrolidine], for which, under setting [1], the MIC99 was found to be 42.6 µM (≈ 17.7 µg/mL) and the MIC50 is 20.8 µM (≈ 8.64 µg/mL).

Turning to `CC(C)(C)c1ccc(C2CC(CN3CCCC3)N2Cc2ccccc2C(F)(F)F)cc1` (racemic) [Azet 52, rac-1-(((2,4-cis)-4-(4-(tert-butyl)phenyl)-1-(2-(trifluoromethyl)benzyl)a-zetidin-2-yl)methyl)pyrrolidine], the MIC50 was 8.62 µM (≈ 3.71 µg/mL). Take `Brc1cc(Br)cc(C2CC(CN3CCCC3)N2Cc2ccccc2Br)c1` (racemic) [Azet 34, rac-1-(((2,4-cis)-1-(2-bromobenzyl)-4-(3,5-dibromophenyl)azetidin-2-yl)methyl)pyrrolidine]: under setting [1], the MIC99 is 3.26 µM (≈ 1.77 µg/mL) and the MIC50 was 7.03 µM (≈ 3.82 µg/mL). On the same counts, the results for `CNCC1CC(c2ccc(OC(F)(F)F)cc2)N1Cc1ccccc1OC(F)(F)F` (racemic) [Azet 19, rac-N-methyl-1-((2,4-cis)-1-(2-(trifluoromethoxy)benzyl) (trifluoromethoxy)phenyl) azetidin-2-yl)methanamine] are 7.2 µM (≈ 3.13 µg/mL) and 4.5 µM (≈ 1.95 µg/mL). For `FC(F)(F)Oc1ccc(C2CC(CN3CCC(c4ccc(C(F)(F)F)cc4)CC3)N2Cc2ccccc2Br)cc1` (racemic) [Azet 39, rac-1-(((2,4-cis)-1-(2-bromobenzyl)-4-(4-(trifluoromethoxy)phenyl)azetidin-2-yl)methyl)-4-(4-(trifluoromethyl)phenyl)pi-peridine], in that order: 90.9 µM (≈ 57 µg/mL) and 85 µM (≈ 53.3 µg/mL). Take `C#CCNCC1CC(c2cc(Br)cc(Br)c2)N1Cc1ccccc1Br` (racemic) [Azet 3, rac-N-(((2,4-cis)-1-(2-bromobenzyl)-4-(3,5-dibromophenyl)azetidin-2-yl)methyl)prop-2-yn-1-amine]: the MIC50 under setting [1] was 22.8 µM (≈ 12 µg/mL). `COc1ccccc1CN1C(CN2CCCC2)CC1c1ccc(Br)cc1` (racemic) [Azet 48, rac-1-(((2,4-cis)-4-(4-bromophenyl)-1-(2-methoxybenzyl)azetidin-2-yl)methyl)pyrrolidine]: the MIC50 under setting [1] worked out at 20.3 µM (≈ 8.43 µg/mL).

On to `Brc1cc(Br)cc(C2CC(CNC3CC3)N2Cc2ccccc2Br)c1` (racemic) [Azet 1, rac-N-(((2,4-cis)-1-(2-bromobenzyl)-4-(3,5-dibromophenyl)azetidin-2-yl)methyl)cyclopropana-mine], for which, under setting [1], the MIC99 was 51.8 µM (≈ 27.4 µg/mL) and the MIC50 amounted to 11.8 µM (≈ 6.24 µg/mL).

As to `FC(F)(F)c1cccc(C2CC(CN3CCCC3)N2Cc2ccccc2C(F)(F)F)c1` (racemic) [Azet 50, rac-1-(((2,4-cis)-1-(2-(trifluoromethyl)benzyl)-4-(3-(trifluoromethyl)phenyl)a-zetidin-2-yl)methyl)pyrrolidine], the MIC50 under setting [1] was determined as 7.04 µM (≈ 3.11 µg/mL). As for `FC(F)(F)Oc1ccccc1CN1C(CN2CCCC2)CC1c1ccccc1` (racemic) [Azet 61, rac-1-(((2,4-cis)-4-phenyl-1-(2-(trifluoromethoxy)benzyl)azetidin-2-yl)methyl)pyrrolidine], the MIC50 under setting [1] is 17.9 µM (≈ 6.99 µg/mL). As to `Cc1ccccc1CN1C(CN2CCCC2)CC1c1ccccc1` (racemic) [Azet 62, rac-1-(((2,4-cis)-1-(2-methylbenzyl)-4-phenylazetidin-2-yl)methyl)pyrrolidine], the MIC50 under setting [1] was determined as 37 µM (≈ 11.9 µg/mL). Take `CC(C)NCC1CC(c2ccc(OC(F)(F)F)cc2)N1Cc1ccccc1Br` (racemic) [Azet 29, rac-N-(((2,4-cis)-1-(2-bromobenzyl)-4-(4-(trifluoromethoxy)phenyl)azetidin-2-yl)methyl)propan-2-amine]: under setting [1], the MIC99 came to 24.5 µM (≈ 11.2 µg/mL) and the MIC50 was 9.85 µM (≈ 4.5 µg/mL). As to `FC(F)(F)Oc1ccccc1CN1C(CN2CCCC2)CC1c1ccccc1OC(F)(F)F` (racemic) [Azet 57, rac-1-(((2,4-cis)-1-(2-(trifluoromethoxy)benzyl) (trifluoromethoxy)phenyl)azetidin-2-yl)methyl)pyrrolidine], under setting [1], the MIC50 was found to be 7.05 µM (≈ 3.34 µg/mL).

Regarding `CC(C)NCC1CC(c2ccc(OC(F)(F)F)cc2)N1Cc1ccccc1OC(F)(F)F` (racemic) [Azet 31, rac-N-(((2,4-cis)-1-(2-(trifluoromethoxy)benzyl)-4-(4-(trifluoromethoxy)phenyl)azetidin-2-yl)methyl)propan-2-amine], under setting [1], the MIC99 was 26.4 µM (≈ 12.2 µg/mL) and the MIC50 was 8.89 µM (≈ 4.11 µg/mL). Regarding `FC(F)(F)Oc1cccc(C2CC(CN3CCCC3)N2Cc2ccccc2OC(F)(F)F)c1` (racemic) [Azet 58, rac-1-(((2,4-cis)-1-(2-(trifluoromethoxy)benzyl) (trifluoromethoxy)phenyl)azetidin-2-yl)methyl)pyrrolidine], the MIC50 under setting [1] came out at 9.14 µM (≈ 4.34 µg/mL). With `FC(F)(F)Oc1ccc(C2CC(CN3CCCC3)N2Cc2ccccc2OC(F)(F)F)cc1` (racemic) [Azet 59, rac-1-(((2,4-cis)-1-(2-(trifluoromethoxy)benzyl)-4-(4-(trifluoromethoxy)phenyl)azetidin-2-yl)methyl)pyrrolidine], under setting [1], the MIC99 is 6.25 µM (≈ 2.97 µg/mL) and the MIC50 is 9.42 µM (≈ 4.47 µg/mL). For the compound `COc1ccccc1CN1C(CN2CCCC2)CC1c1cccc(Cl)c1` (racemic) [Azet 54, rac-1-(((2,4-cis)-4-(3-chlorophenyl)-1-(2-methoxybenzyl)azetidin-2-yl)methyl)pyrrolidine], under setting [1], the MIC50 was determined as 11.7 µM (≈ 4.34 µg/mL).

Take `FC(F)(F)c1ccc(C2CC(CN3CCCC3)N2Cc2ccccc2C(F)(F)F)cc1` (racemic) [Azet 51, rac-1-(((2,4-cis)-1-(2-(trifluoromethyl)benzyl)-4-(4-(trifluoromethyl)phenyl)a-zetidin-2-yl)methyl)pyrrolidine]: the MIC50 under setting [1] is 8.31 µM (≈ 3.68 µg/mL). Regarding `CN(C)CC1CC(c2ccc(OC(F)(F)F)cc2)N1Cc1ccccc1OC(F)(F)F` (racemic) [Azet 5, rac-N,N-dimethyl-1-((2,4- cis)-1-(2-(trifluoromethoxy)benzyl)-4-(4-(trifluoromethoxy)phenyl)azetidin-2-yl)methanamine], under setting [1], the MIC99 is 12 µM (≈ 5.38 µg/mL) and the MIC50 is 9.9 µM (≈ 4.44 µg/mL). On to `FC(F)(F)c1ccccc1CN1C(CN2CCCC2)CC1c1ccccc1` (racemic) [Azet 63, rac-1-(((2,4-cis)-4-phenyl-1-(2-(trifluoromethyl)benzyl)a-zetidin-2-yl)methyl)pyrrolidine], for which, under setting [1], the MIC50 amounted to 22.7 µM (≈ 8.5 µg/mL).
